Data on 17 compounds can be found in US7820670B2 (Alcon Research, Ltd., priority 2006, dated 2010).

Structures can show the parent of a compound that is named as a salt. Where two headings read alike, the source gives them in different places.

Test [1] has as its target ROCK 1 (Homo sapiens, UniProt Q13464). Put plainly: Rho kinase assay (IMAP ROCK-I kit, fluorescence polarization). On the technique in general: In fluorescence polarisation assays a small probe gives low polarisation when free and higher when bound to something large.
Procedure: (§1) The rho kinase assays were performed using a Biomek 2000 Robotic Workstation (Beckman Instruments, Palo Alto, Calif.) in a 96-well plate format. The assay was performed utilizing the IMAP ROCK-I and ROCK-II kits (Molecular Devices, Sunnyvale, Calif.) as follows. […] The substrate, enzyme, and ATP dilutions were made with the reaction buffer provided by the vendor. Test compounds were diluted in 10:10 DMSO-ethanol (vol/vol). For the actual assay, the various components were added into black, clear bottom, 96-well plates (Costar, Corning, N.Y.) in a final volume of 20μl per well. After the enzyme reaction (60 min at 23° C.), 60 μl of the binding solution was added per well and incubated for an additional 30 minutes in the dark at 23° C. Fluorescence polarization of the reaction mixtures was then measured on the Analyst™ HT instrument (Molecular Devices, Sunnyvale, Calif.).
The target in test [2] is T1, ROCK 2 (Homo sapiens, UniProt O75116).
T1 construct: purchased Molecular Devices, Sunnyvale, Calif
T1 sequence (O75116 whole entry, species assumed): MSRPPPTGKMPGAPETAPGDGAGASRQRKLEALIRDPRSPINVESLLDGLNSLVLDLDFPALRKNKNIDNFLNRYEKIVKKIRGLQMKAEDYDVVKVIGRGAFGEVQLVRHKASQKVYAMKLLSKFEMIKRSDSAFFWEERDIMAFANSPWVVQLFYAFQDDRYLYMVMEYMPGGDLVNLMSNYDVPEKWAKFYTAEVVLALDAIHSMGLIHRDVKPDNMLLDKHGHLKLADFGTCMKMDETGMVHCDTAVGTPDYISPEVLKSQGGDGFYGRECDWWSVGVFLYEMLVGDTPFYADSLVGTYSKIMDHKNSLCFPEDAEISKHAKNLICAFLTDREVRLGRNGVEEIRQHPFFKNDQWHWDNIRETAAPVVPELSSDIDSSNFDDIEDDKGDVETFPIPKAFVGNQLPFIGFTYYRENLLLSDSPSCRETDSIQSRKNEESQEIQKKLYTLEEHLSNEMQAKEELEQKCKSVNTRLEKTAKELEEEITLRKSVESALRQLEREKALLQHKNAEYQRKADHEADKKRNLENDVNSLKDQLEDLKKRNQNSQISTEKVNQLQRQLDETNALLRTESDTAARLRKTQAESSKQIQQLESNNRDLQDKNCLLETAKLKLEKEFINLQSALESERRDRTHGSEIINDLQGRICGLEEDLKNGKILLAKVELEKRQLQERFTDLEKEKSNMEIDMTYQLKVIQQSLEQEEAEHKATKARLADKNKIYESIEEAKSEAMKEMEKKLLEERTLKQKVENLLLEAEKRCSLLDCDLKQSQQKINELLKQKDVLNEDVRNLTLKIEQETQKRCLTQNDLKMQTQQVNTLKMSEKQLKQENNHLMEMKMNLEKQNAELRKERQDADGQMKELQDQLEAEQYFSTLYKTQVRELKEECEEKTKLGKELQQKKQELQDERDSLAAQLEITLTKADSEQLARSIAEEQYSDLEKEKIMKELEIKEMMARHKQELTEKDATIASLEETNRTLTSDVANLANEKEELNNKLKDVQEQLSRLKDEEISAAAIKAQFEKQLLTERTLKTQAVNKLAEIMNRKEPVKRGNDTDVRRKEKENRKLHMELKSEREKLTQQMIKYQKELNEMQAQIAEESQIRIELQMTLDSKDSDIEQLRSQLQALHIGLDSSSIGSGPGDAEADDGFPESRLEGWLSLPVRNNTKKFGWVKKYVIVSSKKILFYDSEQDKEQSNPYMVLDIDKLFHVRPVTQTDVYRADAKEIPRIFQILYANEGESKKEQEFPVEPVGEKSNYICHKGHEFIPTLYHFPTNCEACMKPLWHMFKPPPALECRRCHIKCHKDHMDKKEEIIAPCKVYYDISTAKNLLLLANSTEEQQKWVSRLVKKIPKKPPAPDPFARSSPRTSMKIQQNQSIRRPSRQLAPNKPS
Kind of test: Rho kinase assay (IMAP ROCK-II kit, fluorescence polarization). Type of test: biochemical.
Procedure: as §1

The subject of test [3] is lasered (hypertensive) eyes of conscious cynomolgus monkeys. Kind of test: Acute IOP response in lasered (hypertensive) eyes of conscious cynomolgus monkeys. Format: in vivo. The following applies: 30 ug, one 30 μL aliquot topical to right eye. The protocol:
Intraocular pressure (IOP) can be determined with an Alcon Pneumatonometer after light corneal anesthesia with 0.1% proparacaine. Eyes are washed with saline after each measurement. After a baseline IOP measurement, test compound is instilled in one 30 μL aliquot to the right eyes only of nine cynomolgus monkeys. Vehicle is instilled in the right eyes of six additional animals. Subsequent IOP measurements are taken at 1, 3, and 6 hours.

The mark [4] stands for this setting: substrate 200 nM, ATP 10 μM, 60 min at 23° C.

ROCK 1, sequence (Q13464 whole entry, species assumed): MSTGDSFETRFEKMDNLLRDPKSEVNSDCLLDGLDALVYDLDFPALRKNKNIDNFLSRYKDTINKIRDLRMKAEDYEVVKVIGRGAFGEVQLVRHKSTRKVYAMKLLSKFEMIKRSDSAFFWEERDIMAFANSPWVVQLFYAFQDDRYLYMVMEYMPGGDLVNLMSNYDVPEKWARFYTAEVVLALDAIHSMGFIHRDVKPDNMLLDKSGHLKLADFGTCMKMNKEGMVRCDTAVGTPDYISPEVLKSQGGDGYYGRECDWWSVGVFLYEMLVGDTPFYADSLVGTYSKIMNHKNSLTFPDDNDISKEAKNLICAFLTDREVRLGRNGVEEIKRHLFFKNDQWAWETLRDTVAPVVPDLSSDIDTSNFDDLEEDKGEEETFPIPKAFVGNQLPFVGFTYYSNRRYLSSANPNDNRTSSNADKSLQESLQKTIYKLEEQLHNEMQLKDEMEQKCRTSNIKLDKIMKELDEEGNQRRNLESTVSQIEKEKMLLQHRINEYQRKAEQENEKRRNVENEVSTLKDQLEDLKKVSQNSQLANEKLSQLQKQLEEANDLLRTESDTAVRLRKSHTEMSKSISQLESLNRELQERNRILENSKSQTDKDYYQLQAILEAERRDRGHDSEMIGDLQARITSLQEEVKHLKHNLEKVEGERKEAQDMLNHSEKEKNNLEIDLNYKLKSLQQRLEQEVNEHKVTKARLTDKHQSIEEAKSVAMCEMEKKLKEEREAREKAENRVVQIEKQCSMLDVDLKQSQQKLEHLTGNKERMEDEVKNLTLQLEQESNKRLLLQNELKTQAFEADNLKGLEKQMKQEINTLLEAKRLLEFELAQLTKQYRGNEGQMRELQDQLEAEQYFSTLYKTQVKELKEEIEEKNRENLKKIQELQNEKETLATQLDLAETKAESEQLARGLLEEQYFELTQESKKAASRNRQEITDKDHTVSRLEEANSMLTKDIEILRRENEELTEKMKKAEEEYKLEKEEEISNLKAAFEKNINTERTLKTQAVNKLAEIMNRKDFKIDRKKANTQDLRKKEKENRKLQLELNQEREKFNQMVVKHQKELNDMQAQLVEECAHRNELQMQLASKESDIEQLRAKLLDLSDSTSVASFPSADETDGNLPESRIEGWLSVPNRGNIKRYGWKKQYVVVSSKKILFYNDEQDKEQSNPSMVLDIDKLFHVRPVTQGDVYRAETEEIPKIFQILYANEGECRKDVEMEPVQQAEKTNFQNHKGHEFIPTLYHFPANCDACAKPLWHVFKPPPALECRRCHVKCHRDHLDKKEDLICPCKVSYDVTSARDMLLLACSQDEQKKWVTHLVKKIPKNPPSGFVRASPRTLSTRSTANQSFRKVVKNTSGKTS

As for `Clc1cnc2ccc(NCc3ccccn3)nn12` [Example 13, 3-Chloro-N-(pyridin-2-ylmethyl)imidazo[1,2-b]pyridazin-6-amine], the values for the IC50 in test [1] and in test [2] (setting [4]) were 25 µM and 17 µM, respectively.
As to `CCCCC#Cc1cnc2ccc(NCc3ccccn3)nn12` [Example 28, 3-(Hex-1-ynyl)-N-(pyridin-2-ylmethyl)imidazo[1,2-b]pyridazin-6-amine hydrochloride], the IC50 in test [1] and in test [2] (setting [4]) was more than 100 µM each time.
Consider `Cc1n[nH]c2ccc(-c3cnc4ccc(N5CCCNCC5)nn34)cc12` [Example 55, 3-(3-Methyl-1H-indazol-5-yl)-6-perhydro-1,4-diazepin-1-yl-imidazo[1,2-b]pyridazine trihydrochloride], for which the IC50 in test [1] was 0.0088 µM; in test [2] (setting [4]), 0.011 µM. The “IOP % Change” value was 1.0% in test [3] (1 hr after dosing), −21.6% in test [3] (3 hrs after dosing) and −22.0% in test [3] (6 hrs after dosing). The “IOP Change mmHg” value in test [3] (1 hr after dosing) is 1.0 mmHg; in test [3] (3 hrs after dosing) it was −8.7 mmHg; in test [3] (6 hrs after dosing), −8.9 mmHg.
With `CCCC/C=C/c1cnc2ccc(NCCO)nn12` [Example 42, (E)-2-(3-(Hex-1-enyl)imidazo[1,2-b]pyridazin-6-ylamino)ethanol hydrochloride], the IC50 in test [1] is 17 µM; in test [2] (setting [4]), 34 µM.
For the compound `C1=C(c2cnc3ccc(NCCCN4CCOCC4)nn23)CCCC1` [Example 20, 3-Cyclohexenyl-N-(3-morpholinopropyl)imidazo[1,2-b]pyridazin-6-amine hydrochloride], the IC50 in test [1] was 55 µM; in test [2] (setting [4]) it was more than 100 µM.
As to `OCc1cnc2ccc(NCc3ccccn3)nn12` [Example 25, (6-(Pyridin-2-ylmethylamino)imidazo[1,2-b]pyridazin-3-yl)methanol hydrochloride], the IC50 in test [1] and in test [2] (setting [4]) was more than 100 µM each time.
Turning to `CCCC/C=C/c1cnc2ccc(NCCCN3CCN(C)CC3)nn12` [Example 38, (E)-3-(Hex-1-enyl)-N-(3-(4-methylpiperazin-1-yl)propyl)imidazo[1,2-b]pyridazin-6-amine hydrochloride], the IC50 in test [1] was 47 µM; in test [2] (setting [4]) it was 97 µM.
Take `CCCC/C=C/c1cnc2ccc(NCc3ccccn3)nn12` [Example 9, (E)-3-(Hex-1-enyl)-N-(pyridin-2-ylmethyl)imidazo[1,2-b]pyridazin-6-amine fumarate]: the IC50 in test [1] was 7 µM; in test [2] (setting [4]), 3.7 µM.
As to `CCCC/C=C/c1cnc2ccc(NCCCN(C)C)nn12` [Example 39, (E)-N^1-(3-(Hex-1-enyl)imidazo[1,2-b]pyridazin-6-yl)-N^3,N^3-dimethylpropane-1,3-diamine hydrochloride], the figures for the concentration for half-maximal inhibition (IC50) in test [1] and in test [2] (setting [4]) were 1.1 µM and 0.77 µM, respectively.
Regarding `CCCC/C=C/c1cnc2ccc(NCCCN)nn12` [Example 48, (E)-N^1-(3-(Hex-1-enyl)imidazo[1,2-b]pyridazin-6-yl)propane-1,3-diamine], the IC50 came to 57 µM in test [1] and 58 µM in test [2] (setting [4]).
Regarding `COc1ccc(-c2cnc3ccc(NCc4ccccn4)nn23)cc1` [Example 1, 3-(4-Methoxyphenyl)-N-(pyridin-2-ylmethyl)imidazo[1,2-b]pyridazin-6-amine], the IC50 came to 17 µM in test [1] and 69 µM in test [2] (setting [4]).
Take `CCCC/C=C/c1cnc2ccc(NCCOC)nn12` [Example 7, (E)-3-(Hex-1-enyl)-N-(2-methoxyethyl)imidazo[1,2-b]pyridazin-6-amine fumarate]: the IC50 came out at 35 µM in test [1] and 20 µM in test [2] (setting [4]).
In the same order, the values of `c1n[nH]cc1-c1cnc2ccc(N3CCOCC3)nn12` [Example 3, 4-(3-(1H-Pyrazol-4-yl)imidazo[1,2-b]pyridazin-6-yl)morpholine] are 12 µM and 56 µM.
Turning to `CCCCC#Cc1cnc2ccc(NCCCN3CCOCC3)nn12` [Example 26, 3-(Hex-1-ynyl)-N-(3-morpholinopropyl)imidazo[1,2-b]pyridazin-6-amine hydrochloride], the IC50 stood at 9 µM in test [1] and 5.8 µM in test [2] (setting [4]).
On to `CCCC/C=C/c1cnc2ccc(NCCN(CC)CC)nn12` [Example 40, (E)-N^1,N^1-Diethyl-N^2-(3-(hex-1-enyl)imidazo[1,2-b]pyridazin-6-yl)ethane-1,2-diamine hydrochloride], for which the IC50 in test [1] and in test [2] (setting [4]) was more than 100 µM throughout.
Consider `COCCNc1ccc2ncc(C)n2n1` [Example 12, N-(2-Methoxyethyl)-3-methylimidazo[1,2-b]pyridazin-6-amine], for which the IC50 in test [1] was more than 100 µM; in test [2] (setting [4]), 97 µM.
For the compound `NC(=O)c1ccc(-c2cnc3ccc(N4CCCNCC4)nn23)cc1` [Example 58, 4-(6-Perhydro-1,4-diazepin-1-yl-imidazo[1,2-b]pyridazin-3-yl)benzamide dihydrochloride], the IC50 in test [1] was 56 µM; in test [2] it was 16 µM.

Usually IC50 stands for the midpoint of a concentration-inhibition curve. Low values mean greater potency in that assay, high ones weaker potency in that assay.
